# Data as given in ChEMBL document CHEMBL5518219, “Development of a Series of Pyrrolopyridone MAT2A Inhibitors” (J Med Chem, 2024).
# Activity calls are given as the source filed them. No cut-off for these calls is given here.
# Key:
# [1] = Lipophilicity, logD of compound at pH 7.4 by shake flask method; format: physicochemical; conditions: buffer
# [2] = Metabolic stability in rat hepatocytes assessed as intrinsic clearance measured per 10^6 cells; format: ADME, cell-based, Hepatocyte
# [3] = Metabolic stability in human liver microsomes assessed as intrinsic clearance; format: ADME, Microsome
# [4] = biological target: S-adenosylmethionine synthase isoform type-2 (Homo sapiens, UniProt P31153); test: Binding affinity to MAT2a (unknown origin) assessed as dissociation constant by ITC analysis
# cells = conditions: Homo sapiens, HCT116-MTAP null, 120 h, read-out: pGI50 (converted)
# HCT-116 = test: cells; conditions: Homo sapiens, HCT-116, 120 h, read-out: pGI50 (converted)
# PXR = biological target: T1, PXR (Homo sapiens, UniProt O75469); test: Activation of human PXR assessed as fold change at 10 uM relative to DMSO; format: toxicity; conditions: read-out: FC
# T1 sequence (O75469 whole entry): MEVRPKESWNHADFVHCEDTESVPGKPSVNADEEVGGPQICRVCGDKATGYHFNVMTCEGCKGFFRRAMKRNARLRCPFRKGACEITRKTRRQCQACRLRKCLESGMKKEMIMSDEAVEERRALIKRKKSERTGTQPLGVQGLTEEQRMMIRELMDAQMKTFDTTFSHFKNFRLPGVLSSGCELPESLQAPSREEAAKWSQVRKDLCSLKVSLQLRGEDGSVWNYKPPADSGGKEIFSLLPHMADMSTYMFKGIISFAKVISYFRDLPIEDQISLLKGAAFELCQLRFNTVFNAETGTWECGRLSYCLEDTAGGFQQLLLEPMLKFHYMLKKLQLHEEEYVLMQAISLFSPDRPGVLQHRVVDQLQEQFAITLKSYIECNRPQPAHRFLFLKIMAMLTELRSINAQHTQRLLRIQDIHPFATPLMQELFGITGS
# [5] = Apparent permeability in human Caco-2 cells at 10 uM; format: ADME, cell-based
# [6] = Aqueous solubility in phosphate buffer at pH 7.4 measured after 24 hrs; format: physicochemical
# [7] = Plasma protein binding in mouse assessed as free fraction by equilibrium dialysis; format: ADME, cell-free
# [8] = Plasma protein binding in rat assessed as free fraction by equilibrium dialysis; format: ADME, cell-free
# [9] = Plasma protein binding in dog assessed as free fraction by equilibrium dialysis; format: ADME, cell-free, Canis lupus familiaris
# [10] = Plasma protein binding in human assessed as free fraction by equilibrium dialysis; format: ADME, cell-free
# [11] = Intrinsic clearance in mouse hepatocytes measured per 10^6 cells; format: ADME, cell-based, Hepatocyte; conditions: read-out: CLH
# [12] = Volume of distribution at steady state in mouse at 1 mg/kg, po or 0.5 mg/kg, iv; format: ADME, organism-based; conditions: in vivo
# [13] = Half life in mouse at 1 mg/kg, po or 0.5 mg/kg, iv; format: ADME, organism-based; conditions: in vivo
# [14] = Oral bioavailability in mouse at 1 mg/kg; format: ADME, organism-based; conditions: in vivo
# [15] = Volume of distribution at steady state in rat at 1 mg/kg, po or 0.5 mg/kg, iv; format: ADME, organism-based; conditions: in vivo
# [16] = Half life in rat at 1 mg/kg, po or 0.5 mg/kg, iv; format: ADME, organism-based; conditions: in vivo
# [17] = Oral bioavailability in rat at 1 mg/kg; format: ADME, organism-based; conditions: in vivo
# [18] = Solubility in FaSSIF at pH 6.5; format: ADME
# [19] = Solubility in FeSSIF at pH 5; format: ADME
# [20] = Solubility in simulated gastric fluid at pH 1; format: ADME
# [21] = Unbound fraction in nude mouse plasma at 30 mg/kg, po measured after 24 hrs; format: ADME, organism-based
# [22] = Unbound brain-to-plasma concentration ratio in rat; format: ADME, cell-free; conditions: read-out: K(p,uu,brain)
# NCI-H441 = test: Antiproliferative activity against human NCI-H441 cells harboring MTAP knockout; format: functional, cell-based
# HCT116-MTAP null = test: Antitumor activity against human HCT116-MTAP null cells xenografted in NCR nude mouse assessed as reduction in tumor volume at 20 mg/kg, po administered twice daily for 24 days and measured twice weekly; format: functional, organism-based; conditions: time 24.0 day
# animal or person [23] = conditions: Mus musculus, NCR nude, HCT116-MTAP null, po, read-out: INH
# animal or person [24] = conditions: Mus musculus, NCR nude, HCT116-MTAP null, po, read-out: INH; remark: listed apart in the source
# S-adenosylmethionine synthase isoform type-2, sequence (P31153 whole entry, canonical isoform): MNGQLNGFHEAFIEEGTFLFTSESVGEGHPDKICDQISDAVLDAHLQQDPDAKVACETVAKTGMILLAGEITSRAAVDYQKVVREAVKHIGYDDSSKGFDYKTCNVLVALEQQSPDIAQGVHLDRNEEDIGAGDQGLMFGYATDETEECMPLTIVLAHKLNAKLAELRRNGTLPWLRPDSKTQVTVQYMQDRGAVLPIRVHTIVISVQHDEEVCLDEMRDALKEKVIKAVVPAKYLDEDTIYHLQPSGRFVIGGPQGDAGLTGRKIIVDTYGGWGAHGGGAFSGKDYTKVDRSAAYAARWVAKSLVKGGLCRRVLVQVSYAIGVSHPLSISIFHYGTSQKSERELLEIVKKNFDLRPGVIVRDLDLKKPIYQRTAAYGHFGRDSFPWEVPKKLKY
smiles,measurement,setting,value
Cc1ccc(-n2c(=O)c(-c3ccc4nn(C)cc4c3)cc3[nH]nc(C4CC4)c32)cc1,logD,[1],3.3
same,hepatocyte CLint,[2],25 µL/min/1e6 cells
Cn1cc2cc(-c3cc4[nH]nc(C5CC5)c4n(-c4ccc(CCO)cc4)c3=O)ccc2n1,logD,[1],2.3
same,hepatocyte CLint,[2],4 µL/min/1e6 cells
O=c1ccc2[nH]nc(C3CC3)c2n1-c1ccc(OC(F)F)cc1,logD,[1],2.1
same,microsomal CLint,[3],< 3 µL/min/mg
same,hepatocyte CLint,[2],1 µL/min/1e6 cells
Cn1cc2cc(-c3cc4[nH]nc(C5CC5)c4n(-c4ccc(OC(F)F)cn4)c3=O)ccc2n1,logD,[1],2.5
same,hepatocyte CLint,[2],2 µL/min/1e6 cells
Cc1ccc(-n2c(=O)c(-c3ccc4nn(C)cc4c3)cc3[nH]nc(C4CC4)c32)cn1,logD,[1],2.2
same,hepatocyte CLint,[2],< 1 µL/min/1e6 cells
CN(C)CCc1nnc2cc(-c3ccccc3)c3cc(Cl)ccc3n12,Kd,[4],170 nM
FC(F)Oc1ccc(-c2nccc3[nH]nc(C4CC4)c23)cc1,logD,[1],3.8
same,microsomal CLint,[3],54 µL/min/mg
same,hepatocyte CLint,[2],20 µL/min/1e6 cells
CCc1n[nH]c2cc(-c3ccc4nn(C)cc4c3)c(=O)n(-c3ccc(OC(F)F)cc3)c12,logD,[1],3.1
same,hepatocyte CLint,[2],< 1 µL/min/1e6 cells
Cn1cc2ccc(-c3cc4[nH]nc(C5CC5)c4n(-c4ccc(OC(F)F)cc4)c3=O)cc2n1,logD,[1],3.4
same,hepatocyte CLint,[2],25 µL/min/1e6 cells
N#Cc1cc2[nH]nc(C3CC3)c2c(-c2ccc(OC(F)F)cc2)n1,logD,[1],3.9
same,microsomal CLint,[3],< 3 µL/min/mg
same,hepatocyte CLint,[2],5 µL/min/1e6 cells
Cn1cc2cc(-c3cc4[nH]nc([C@@H]5CCOC5)c4n(-c4ccc(OC(F)F)cc4)c3=O)ccc2n1,logD,[1],2.5
same,hepatocyte CLint,[2],4 µL/min/1e6 cells
O=c1c(-c2ccccc2)cc2[nH]nc(C3CC3)c2n1-c1ccc(OC(F)F)cc1,logD,[1],4
same,hepatocyte CLint,[2],14 µL/min/1e6 cells
COc1ccc(-c2c(Nc3ccccn3)[nH]c3c(C4=CCCCC4)c(-c4ccccc4)nn3c2=O)cc1,GI50,cells,501 nM
same,GI50,HCT-116,1580 nM
COc1ccc(-n2c(=O)c(-c3ccc4nn(C)cc4c3)cc3[nH]nc(C4CC4)c32)cc1,logD,[1],2.8
same,hepatocyte CLint,[2],3 µL/min/1e6 cells
Cn1cc2cc(-c3cc4[nH]nc(C5CC5)c4n(-c4ccc(CO)cc4)c3=O)ccc2n1,logD,[1],2.2
same,hepatocyte CLint,[2],35 µL/min/1e6 cells
COc1ccc(-c2cc3[nH]nc(C4CC4)c3n(-c3ccc(OC(F)F)cc3)c2=O)cc1,logD,[1],4
same,hepatocyte CLint,[2],7 µL/min/1e6 cells
Cc1ncc(-n2c(=O)c(-c3ccc4nn(C)cc4c3)cc3[nH]nc(C4CC4)c32)cn1,logD,[1],1.6
same,hepatocyte CLint,[2],< 1 µL/min/1e6 cells
CCc1ccc(-n2c(=O)c(-c3ccc4nn(C)cc4c3)cc3[nH]nc(C4CC4)c32)cn1,logD,[1],2.4
same,hepatocyte CLint,[2],19 µL/min/1e6 cells
Cn1cc2cc(-c3cc4[nH]nc(C5CC5)c4n(-c4ccc(Cl)cc4)c3=O)ccc2n1,logD,[1],3.4
same,hepatocyte CLint,[2],5 µL/min/1e6 cells
COc1ccc(-c2cc3[nH]nc(C4CC4)c3c(-c3ccc(OC(F)F)cc3)n2)cc1,logD,[1],> 4.5
same,microsomal CLint,[3],21 µL/min/mg
same,hepatocyte CLint,[2],26 µL/min/1e6 cells
Cn1cc(-c2cc3[nH]nc(C4CC4)c3n(-c3ccc(OC(F)F)cc3)c2=O)ccc1=O,logD,[1],2
same,hepatocyte CLint,[2],< 1 µL/min/1e6 cells
COc1ccc(-n2cc3cnc(NCC(F)(F)F)nc3c(-c3ccc(Br)cc3)c2=O)cc1,fold induction at 10 µM,PXR,25
Cn1nnc2ccc(-c3cc4[nH]nc(C5CC5)c4n(-c4ccc(OC(F)F)cc4)c3=O)cc21,logD,[1],3.1
same,hepatocyte CLint,[2],< 1 µL/min/1e6 cells
[O-][n+]1ccc2[nH]nc(C3CC3)c2c1-c1ccc(OC(F)F)cc1,logD,[1],1.6
same,microsomal CLint,[3],< 3 µL/min/mg
same,hepatocyte CLint,[2],< 1 µL/min/1e6 cells
Cc1n[nH]c2cc(-c3ccc4nn(C)cc4c3)c(=O)n(-c3ccc(OC(F)F)cc3)c12,logD,[1],3
same,hepatocyte CLint,[2],< 1 µL/min/1e6 cells
CNc1ccc(-n2c(=O)c(-c3ccc4nn(C)cc4c3)cc3[nH]nc(C4CC4)c32)cn1,logD,[1],2.3
same,hepatocyte CLint,[2],< 1 µL/min/1e6 cells
C[C@@H](O)c1ccc(-n2c(=O)c(-c3ccc4nn(C)cc4c3)cc3[nH]nc(C4CC4)c32)cc1,logD,[1],2.4
same,hepatocyte CLint,[2],5 µL/min/1e6 cells
Cn1cc2cc(-c3cc4[nH]nc(C5CC5)c4n(-c4ccc(OC(F)F)nc4)c3=O)ccc2n1,logD,[1],3
same,hepatocyte CLint,[2],< 1 µL/min/1e6 cells
Cc1ccc(-n2c(=O)c(-c3ccc4nn(C)cc4c3)cc3[nH]nc(C4CC4)c32)nc1,logD,[1],2.2
same,hepatocyte CLint,[2],5 µL/min/1e6 cells
COc1ccc(-c2cc3[nH]nc(C4CC4)c3n(-c3ccc(OC(F)F)cc3)c2=O)cn1,logD,[1],3.5
same,hepatocyte CLint,[2],3 µL/min/1e6 cells
COc1ccc(-c2cc3[nH]nc(C4CC4)c3n(-c3ccc(OC(F)F)cc3)c2=O)nc1,logD,[1],3.4
same,hepatocyte CLint,[2],7 µL/min/1e6 cells
O=c1c(-c2ccc(O)cc2)cc2[nH]nc(C3CC3)c2n1-c1ccc(OC(F)F)cc1,logD,[1],3.4
same,hepatocyte CLint,[2],2 µL/min/1e6 cells
COc1ccc(-c2c3c(C4CC4)n[nH]c3cc[n+]2[O-])cc1,logD,[1],1.3
same,microsomal CLint,[3],< 3 µL/min/mg
same,hepatocyte CLint,[2],< 1 µL/min/1e6 cells
Cc1nc2ccc(-c3cc4[nH]nc(C5CC5)c4n(-c4ccc(OC(F)F)cc4)c3=O)cc2n1C,logD,[1],3.5
same,hepatocyte CLint,[2],< 2 µL/min/1e6 cells
COc1ccc(-c2nccc3[nH]nc(C4CC4)c23)cc1,logD,[1],3.3
same,microsomal CLint,[3],89 µL/min/mg
same,hepatocyte CLint,[2],38 µL/min/1e6 cells
Cn1cc2cc(-c3cc4[nH]nc(C5CC5)c4n(-c4ccc(OC(F)F)cc4)c3=O)ccc2n1,logD,[1],3.4
same,hepatocyte CLint,[2],< 1 µL/min/1e6 cells
same,Papp at 10 µM,[5],9.4 ×10⁻⁶ cm/s
same,solubility at 24 h,[6],3.2 µM
same,fraction unbound,[7],0.03
same,fraction unbound,[8],0.006
same,fraction unbound,[9],0.12
same,fraction unbound,[10],0.032
same,hepatocyte CLint,[11],1.4 µL/min/1e6 cells
same,Vdss,[12],5.5 L/kg
same,half-life,[13],180 min
same,bioavailability,[14],100%
same,Vdss,[15],0.8 L/kg
same,half-life,[16],378 min
same,bioavailability,[17],100%
same,solubility,[18],3.3 µM
same,solubility,[19],11.2 µM
same,solubility,[20],70.4 µM
same,fraction unbound at 24 h,[21],0.029
same,Kp uu,[22],0.03
same,Activity,NCI-H441,Active
same,Activity,HCT116-MTAP null,Active
same,GI50,cells,79.4 nM
same,inhibition in vivo at 20 mg/kg,animal or person [23],> 90%
same,inhibition in vivo at 20 mg/kg,animal or person [24],> 90%
